In patent US20240217966A1, “PHARMACEUTICAL COMPOSITION CONTAINING GLP-1 RECEPTOR AGONIST HAVING FUSED RING” (Shionogi & Co., Ltd., priority 2021, published 2024) one finds Emax and EC50 data, which are given here for 44 molecules.

The target in this assay is T1, Human GLP-1 receptor (Homo sapiens, UniProt P43220).
T1 construct: expressed in transfected cells
As to the kind of experiment: Measurement of GLP-1 receptor agonist activity (cAMP assay). The format is cell-based. The following applies: cAMP increase in GLP-1 R/CHO-K1 cells, 2 nM human GLP-1 (7-36) = 100%, DMSO only = 0%; for Emax: CHO-K1, maximum effect, read-out: Emax. The method in brief:
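Agonism measured as cAMP accumulation by time-resolved FRET immunoassay in CHO-K1 cells stably expressing human GLP-1 receptor. Cells treated for 1 h at 37 °C with compound and forskolin (400 μM stock), in buffer containing the PDE inhibitors IBMX (0.1 mM) and RO20-1724 (0.2 mM).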

T1 sequence (P43220 24-463): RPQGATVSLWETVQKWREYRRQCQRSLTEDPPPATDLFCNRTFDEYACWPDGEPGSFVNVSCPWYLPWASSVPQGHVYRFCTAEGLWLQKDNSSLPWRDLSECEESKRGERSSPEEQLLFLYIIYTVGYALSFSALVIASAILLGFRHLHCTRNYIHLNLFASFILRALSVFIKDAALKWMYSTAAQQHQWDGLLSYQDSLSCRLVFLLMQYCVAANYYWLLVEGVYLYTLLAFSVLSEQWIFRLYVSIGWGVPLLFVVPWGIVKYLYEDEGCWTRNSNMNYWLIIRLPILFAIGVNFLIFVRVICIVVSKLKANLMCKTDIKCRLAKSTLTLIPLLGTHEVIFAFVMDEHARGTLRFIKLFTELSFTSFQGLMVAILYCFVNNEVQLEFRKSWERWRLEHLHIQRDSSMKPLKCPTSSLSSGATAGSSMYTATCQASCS

As a reminder, the Emax is the maximal effect, on the per cent scale that the assay sets. For orientation: EC50 means the concentration giving half of the maximal effect. Higher therefore signals a need for much substance. In the case of `C[C@H]1c2nc(OCc3ccc(Cl)cc3Cl)c(C(F)(F)F)cc2CCN1Cc1nc2ccc(C(=O)O)c(F)c2n1C[C@@H]1CCO1` [Compound I-243], the Emax came out at 111% and the EC50 was determined as 0.0556 nM.

Regarding `C[C@H]1c2nc(OCc3ccc(Cl)cc3Cl)c(C(F)(F)F)cc2CCN1Cc1nc2c(F)cc(C(=O)O)cc2n1C[C@@H]1CCO1` [Compound I-244], the Emax is 123% and the midpoint of the response, the EC50, lay at 0.0394 nM.

Turning to `C[C@H]1c2nc(OCc3cc(F)c(Cl)cc3F)c(C(F)(F)F)cc2CCN1Cc1nc2ccc(C(=O)O)c(F)c2n1C[C@@H]1CCO1` [Compound I-245], the Emax amounted to 109% and the EC50 was determined as 0.0605 nM.

On to `C[C@H]1c2nc(OCc3cc(F)c(Cl)cc3F)c(C(F)(F)F)cc2CCN1Cc1nc2c(F)cc(C(=O)O)cc2n1C[C@@H]1CCO1` [Compound I-246], for which the maximal effect (Emax) turned out to be 120% and the concentration giving a half-maximal response (EC50) was 0.0264 nM.

In the case of `C[C@H]1c2nc(OCc3ccc(Cl)cn3)c(C(F)(F)F)cc2CCN1Cc1nc2ccc(C(=O)O)cc2n1C[C@@H]1CCO1` [Compound I-247], the Emax was found to be 121% and the EC50 was found to be 0.351 nM.

Take `Cc1csc(COc2nc3c(cc2C(F)(F)F)CCN(Cc2nc4ccc(C(=O)O)cc4n2C[C@@H]2CCO2)[C@H]3C)n1` [Compound I-248]: the Emax was 124% and the midpoint of the response, the EC50, lay at 0.902 nM.

On to `C[C@H]1c2nc(OCc3ccc(Cl)cc3)c(C(F)(F)F)cc2CCN1Cc1nc2ccc(C(=O)O)cc2n1C[C@@H]1CCO1` [Compound I-249], for which the Emax came out at 145% and the EC50 was 0.13 nM.

`Cc1ccc(COc2nc3c(cc2C(F)(F)F)CCN(Cc2nc4ccc(C(=O)O)cc4n2C[C@@H]2CCO2)[C@H]3C)cc1` [Compound I-250]: the Emax was determined as 121% and it took 0.164 nM to reach a half-maximal effect (EC50).

For `C[C@H]1c2nc(OCc3ccc(C4CC4)cc3)c(C(F)(F)F)cc2CCN1Cc1nc2ccc(C(=O)O)cc2n1C[C@@H]1CCO1` [Compound I-251], the Emax was 120% and the EC50 was found to be 0.807 nM.

As for `COc1cc(Cl)ccc1COc1nc2c(cc1C(F)(F)F)CCN(Cc1nc3ccc(C(=O)O)cc3n1C[C@@H]1CCO1)[C@H]2C` [Compound I-252], the Emax was found to be 125% and the midpoint of the response, the EC50, lay at 0.0798 nM.

With `C[C@H]1c2nc(OCc3ccccc3Cl)c(C(F)(F)F)cc2CCN1Cc1nc2ccc(C(=O)O)cc2n1C[C@@H]1CCO1` [Compound I-253], the Emax turned out to be 119% and the concentration giving a half-maximal response (EC50) was 0.366 nM.

As for `C[C@H]1c2nc(OCc3ccc(F)cc3F)c(C(F)(F)F)cc2CCN1Cc1nc2ccc(C(=O)O)cc2n1C[C@@H]1CCO1` [Compound I-254], the Emax turned out to be 126% and the EC50 was found to be 0.177 nM.

For `C[C@H]1c2nc(OCc3ccc(Cl)cc3Cl)c(C(F)(F)F)cc2CCN1Cc1nc2ccc(C(=O)O)cc2n1C[C@@H]1CCO1` [Compound I-255], the Emax was found to be 122% and it took 0.102 nM to reach a half-maximal effect (EC50).

As for `C[C@H]1c2nc(OCc3ccc(OC(F)F)cc3F)c(C(F)(F)F)cc2CCN1Cc1nc2ccc(C(=O)O)cc2n1C[C@@H]1CCO1` [Compound I-256], the Emax is 119% and the midpoint of the response, the EC50, lay at 0.389 nM.

For `C[C@H]1c2nc(OCc3cc(F)c(Cl)cc3F)c(C(F)(F)F)cc2CCN1Cc1nc2ccc(C(=O)O)cc2n1C[C@@H]1CCO1` [Compound I-257], the Emax amounted to 115% and it took 0.0747 nM to reach a half-maximal effect (EC50).

Regarding `C[C@H]1c2nc(OCc3ccc(C#N)cc3F)c(C(F)(F)F)cc2CCN1Cc1nc2ccc(C(=O)O)cc2n1C[C@@H]1CCO1` [Compound I-258], the Emax turned out to be 107% and the response was half-maximal at 0.0911 nM (EC50).

Regarding `C[C@H]1c2nc(OCc3c(F)cc(Cl)cc3F)c(C(F)(F)F)cc2CCN1Cc1nc2ccc(C(=O)O)cc2n1C[C@@H]1CCO1` [Compound I-259], the Emax stood at 134% and the EC50 stood at 0.104 nM.

`C[C@H]1c2nc(OCc3c(F)cc(F)cc3F)c(C(F)(F)F)cc2CCN1Cc1nc2ccc(C(=O)O)cc2n1C[C@@H]1CCO1` [Compound I-260]: the Emax is 115% and the concentration giving a half-maximal response (EC50) amounted to 0.128 nM.

With `C[C@H]1c2cc(OCc3ccc(Cl)cc3F)c(C(F)F)cc2CCN1Cc1nc2ccc(C(=O)O)cc2n1C[C@@H]1CCO1` [Compound I-261], the maximal effect (Emax) stood at 105% and a half-maximal response (EC50) required 1.27 nM.

For the molecule `COc1ccc(COc2nc3c(cc2C(F)(F)F)CCN(Cc2nc4ccc(C(=O)O)cc4n2C[C@@H]2CCO2)C3)cc1` [Compound I-262], the Emax came out at 109% and a half-maximal effect (EC50) was put at 4.47 nM.

On to `O=C(O)c1ccc2nc(CN3CCc4cc(C(F)(F)F)c(OCc5ccc(Cl)cn5)nc4C3)n(C[C@@H]3CCO3)c2c1` [Compound I-263], for which the Emax is 105% and the EC50 was found to be 8.8 nM.

In the case of `O=C(O)c1ccc2nc(CN3CCc4cc(C(F)(F)F)c(OCc5ccc(Cl)cc5)nc4C3)n(C[C@@H]3CCO3)c2c1` [Compound I-264], the Emax was found to be 121% and the EC50 came out at 2.36 nM.

For `Cc1ccc(COc2nc3c(cc2C(F)(F)F)CCN(Cc2nc4ccc(C(=O)O)cc4n2C[C@@H]2CCO2)C3)cc1` [Compound I-265], the Emax is 100% and a half-maximal effect (EC50) was put at 3.18 nM.

In the case of `O=C(O)c1ccc2nc(CN3CCc4cc(C(F)(F)F)c(OCc5ccc(C6CC6)cc5)nc4C3)n(C[C@@H]3CCO3)c2c1` [Compound I-266], the Emax is 111% and the EC50 was determined as 4.04 nM.

For `COc1cc(Cl)ccc1COc1nc2c(cc1C(F)(F)F)CCN(Cc1nc3ccc(C(=O)O)cc3n1C[C@@H]1CCO1)C2` [Compound I-267], the Emax worked out at 112% and the EC50 turned out to be 0.861 nM.

With `O=C(O)c1ccc2nc(CN3CCc4cc(C(F)(F)F)c(OCc5ccc(F)cc5F)nc4C3)n(C[C@@H]3CCO3)c2c1` [Compound I-268], the maximal response (Emax) stood at 108% and the EC50 stood at 1.97 nM.

For the molecule `O=C(O)c1ccc2nc(CN3CCc4cc(C(F)(F)F)c(OCc5ccc(Cl)cc5Cl)nc4C3)n(C[C@@H]3CCO3)c2c1` [Compound I-269], the maximum response (Emax) was found to be 109% and the EC50 was found to be 1.16 nM.

In the case of `O=C(O)c1ccc2nc(CN3CCc4cc(C(F)(F)F)c(OCc5ccc(OC(F)F)cc5F)nc4C3)n(C[C@@H]3CCO3)c2c1` [Compound I-270], the Emax is 116% and the midpoint of the response, the EC50, lay at 0.69 nM.

Take `N#Cc1ccc(COc2nc3c(cc2C(F)(F)F)CCN(Cc2nc4ccc(C(=O)O)cc4n2C[C@@H]2CCO2)C3)c(F)c1` [Compound I-271]: the Emax came to 118% and the 50% effective concentration (EC50) was determined as 1.66 nM.

In the case of `O=C(O)c1ccc2nc(CN3CCc4cc(C(F)(F)F)c(OCc5ccc(F)cc5)nc4C3)n(C[C@@H]3CCO3)c2c1` [Compound I-272], the Emax stood at 107% and the EC50 worked out at 3.94 nM.

In the case of `C[C@H]1c2nc(OCc3ccc(Cl)cc3F)c(C(F)(F)F)cc2CCN1Cc1nc2c(F)cc(C(=O)O)cc2n1C[C@@H]1CCO1` [Compound I-273], the maximum response (Emax) came to 121% and the concentration giving a half-maximal response (EC50) was 0.0301 nM.

Turning to `COc1cc(C(=O)O)cc2c1nc(CN1CCc3cc(C(F)(F)F)c(OCc4ccc(Cl)cc4F)nc3[C@@H]1C)n2C[C@@H]1CCO1` [Compound I-274], the Emax worked out at 120% and the half-maximal effective concentration (EC50) came to 0.0134 nM.

On to `C[C@H]1c2nc(OCc3ccc(Cl)cc3F)c(C(F)(F)F)cc2CCN1Cc1nc2ccc(C(=O)O)nc2n1C[C@@H]1CCO1` [Compound I-275], for which the Emax is 107% and the EC50 came to 0.246 nM.

As for `C[C@H]1c2nc(OCc3ccc(Cl)cc3F)c(Cl)cc2CCN1Cc1nc2ccc(C(=O)O)cc2n1C[C@@H]1CCO1` [Compound I-276], the Emax worked out at 114% and a half-maximal response (EC50) required 0.0521 nM.

With `O=C(O)c1ccc2nc(CN3CCc4cc(C(F)(F)F)c(OCc5ccccc5Cl)nc4C3)n(C[C@@H]3CCO3)c2c1` [Compound I-277], the Emax was 96.3% and the midpoint of the response, the EC50, lay at 3.2 nM.

In the case of `O=C(O)c1ccc2nc(CN3CCc4cc(C(F)(F)F)c(OCc5cc(F)c(Cl)cc5F)nc4C3)n(C[C@@H]3CCO3)c2c1` [Compound I-278], the Emax was 109% and the EC50 was determined as 0.806 nM.

Consider `O=C(O)c1ccc2nc(CN3CCc4cc(C(F)(F)F)c(OCc5c(F)cc(Cl)cc5F)nc4C3)n(C[C@@H]3CCO3)c2c1` [Compound I-279], for which the Emax stood at 110%.

As to `O=C(O)c1ccc2nc(CN3CCc4cc(C(F)(F)F)c(OCc5c(F)cc(F)cc5F)nc4C3)n(C[C@@H]3CCO3)c2c1` [Compound I-280], the Emax came out at 105% and the EC50 turned out to be 0.79 nM.

Turning to `COc1cc(C(=O)O)cc2c1nc(CN1CCc3cc(C(F)(F)F)c(OCc4ccccc4Cl)nc3[C@@H]1C)n2C[C@@H]1CCO1` [Compound I-281], the Emax came to 120% and the EC50 turned out to be 0.00739 nM.

On to `COc1cc(C(=O)O)cc2c1nc(CN1CCc3cc(C(F)(F)F)c(OCc4ccc(F)cc4F)nc3[C@@H]1C)n2C[C@@H]1CCO1` [Compound I-282], for which the Emax worked out at 114% and the EC50 was 0.00918 nM.

Regarding `COc1cc(C(=O)O)cc2c1nc(CN1CCc3cc(C(F)(F)F)c(OCc4ccc(OC(F)F)cc4F)nc3[C@@H]1C)n2C[C@@H]1CCO1` [Compound I-283], the maximum response (Emax) is 118% and the EC50 was found to be 0.0283 nM.

For `COc1cc(C(=O)O)cc2c1nc(CN1CCc3cc(C(F)(F)F)c(OCc4ccc(F)cc4)nc3[C@@H]1C)n2C[C@@H]1CCO1` [Compound I-284], the Emax was determined as 119% and the EC50 stood at 0.016 nM.

For `COc1cc(C(=O)O)cc2c1nc(CN1CCc3cc(C(F)(F)F)c(OCc4c(F)cc(F)cc4F)nc3[C@@H]1C)n2C[C@@H]1CCO1` [Compound I-285], the Emax was determined as 130% and a half-maximal response (EC50) required 0.00862 nM.

As to `COc1ccc(COc2nc3c(cc2C(F)(F)F)CCN(Cc2nc4ccc(C(=O)O)nc4n2C[C@@H]2CCO2)[C@H]3C)cc1` [Compound I-286], the maximal effect (Emax) was found to be 115% and the midpoint of the response, the EC50, lay at 0.444 nM.
